Results on 7 compounds are retold here after patent US9687497B1, “Salts and polymorphs of cyclic boronic acid ester derivatives and therapeutic uses thereof” (Rempex Pharmaceuticals, Inc., priority 2014, dated 2017).

What is called pKa is the negative logarithm of the acid dissociation constant. One may read the solubility as how much of the substance goes into solution per volume.

Structures are written as SMILES. Read-outs that look alike come from different tables or passages of the source.

The nature of data set [1]: Salt-screening study (crystalline form screening of Compound 1 with counterions). The class given is physicochemical. To be noted: for formation of pure and stable crystalline salt form, overall salt screen: approximately 360 screening experiments, FT-Raman and PXRD. How it is done: During the salt-screening step, 60 combinations of […] counterions with nine solvent systems were tested.
The screening studies were conducted in two stages.
In Stage 1, the samples involving counterion Nos. 1-6 listed in Table 1 were paired with solvent Nos. 1-6 listed in Table 2, whereas samples involving counterion Nos. 7 and 8 were paired with solvent Nos. 1-5 and 8.
In Stage 2, a few samples that remained undissolved and amorphous in the first stage were 1) subjected to rapid solvent evaporation under vacuum; 2) dissolved in solvent Nos. 7-9 listed in Table 2; 3) cooled to 5° C. and held at 5° C. for 72 hrs; and 4) allowed to evaporate at ambient conditions over 3-7 days.
(§1) All samples were inspected visually and by Polarized light microscopy at every step listed above to check any formation of crystalline products. Any crystalline products obtained from these procedures were isolated by vacuum filtration and, where possible, analyzed by FT-Raman. Unique crystalline products were subjected to further analyses by PXRD, DSC, TGA-IR, and HPLC, as necessary.

Data set [2] can be described thus: HPLC analysis of salt-screening products for decomposition. In kind it is physicochemical. To be noted: solvent system THF and Water (95:5 vol %).
Excerpt: as §1

The conditions of data set [3]: counterion itself; cited from earlier work.
Another data set in a line: pKa of Compound 1. In kind it is physicochemical.
A short description of data set [4]: Chemical stability of Compound 1 in solution. In kind it is physicochemical. To be noted: solutions having pH values between 2 and 8.
Data set [5] can be described thus: Solubility of Compound 1 in salt-screening solvents. To be noted: for solubility: organic solvent or mixture, read-out: solubility of Compound 1 (S). The class given is physicochemical. Here is the method:
Nine solvent systems were evaluated in the Salt-screening study. The solvents were selected based on the solubility data accumulated during preceding studies. In addition, solvents represented a diverse set of polarities, dielectric constants, dipole moments, and hydrogen-bond donor/acceptor attributes to promote crystallization of salts.

Data set [6] can be described thus: Open-air handling and stability of isolated potassium salt. The class given is physicochemical. How it is done: The potassium salt was subsequently reproduced at 50 mg and 300 mg scales using seeding, which facilitated crystallization of the several hours of amorphous intermediate phase. […] Once a free-flowing powder was isolated, the powder was stable in open-air for at least 7 days.

For `[Ca+2].[OH-].[OH-]` [Calcium hydroxide], the “formation of pure and stable crystalline salt form, overall salt screen” value (“formation” below) in data set [1] is “no pure and stable crystalline salt was formed”. In data set [2], the “decomposition in screening products by HPLC” value (“decomposition” for short) is reported as “significant decomposition”.

In the case of `C[N+](C)(C)CCO.[OH-]` [Choline hydroxide], the “decomposition” value in data set [2] is on record as “significant decomposition”. In addition, the pKa3 in data set [3] is >11.

In the data set “pKa of Compound 1”, `O=C(O)C[C@@H]1CC[C@H](NC(=O)Cc2cccs2)B(O)O1` [Compound 1, 2-((3R,6S)-2-hydroxy-3-(2-(thiophen-2-yl)acetamido)-1,2 oxaborinan-6-yl)acetic acid] displayed a pKa of 3.92. Moreover, the “chemical stability of boronic acid moiety in solution” value in data set [4] is “chemically stable”. Also, the solubility in data set [5] (1,4-dioxane) was 1000 to 10000 µg/mL; in data set [5] (MTBE) it was < 1000 µg/mL; in data set [5] (THEF Water (95:5% vol.)), > 1000 µg/mL; in data set [5] (acetone), < 1000 µg/mL; in data set [5] (acetonitrile (ACN)), < 1000 µg/mL; in data set [5] (ethyl acetate), < 1000 µg/mL. Moreover, the solubility in data set [5] (ACN: Water (90:10% vol.)) was < 20000 µg/mL. Further, in data set [5] (Water), the “solubility of Compound 1” value is given as “Low solubility of Compound 1”.

For `O=C([O-])C[C@@H]1CC[C@H](NC(=O)Cc2cccs2)B(O)O1.[K+]` [Compound 1A, potassium salt of 2-((3R,6S)-2-hydroxy-3-(2-(thiophen-2-yl)acetamido)-1,2-oxaborinan-6-yl)acetic acid], the “formation” value is “yielded a pure and stable crystalline form” in data set [1]; “yielded crystalline products” in data set [1] (listed as potassium salt of compound 1). Also, in data set [1] (only one crystalline form observed in the study), the propensity for polymorphism result is listed as “low propensity for polymorphism”. Besides, the deliquescence on isolation entry in data set [6] (isolated in open air, reduced or eliminated under nitrogen blanket) is reported as “may undergo deliquescence”. The “stability of isolated free-flowing powder in open-air” value in data set [6] (open air) is on record as “at least 7 days”.

Regarding `[Mg+2].[OH-].[OH-]` [Magnesium hydroxide], the “formation” value in data set [1] was “no pure and stable crystalline salt was formed”. Besides, in data set [2], the “decomposition” value was “significant decomposition”.

For the compound `CC(C)(C)[O-].[K+]` [Potassium t-butoxide], the pKa3 in data set [3] is reported as ~14.

For the compound `[K+]` [potassium], the “decomposition” value in data set [2] is recorded as “significant decomposition”.
